Measured values: US11186606B2, “Compositions and methods of modulating the immune response by activating alpha protein kinase 1” (Shanghai Yao Yuan Biotechnology Co., Ltd., priority 2017, dated 2021)

Biological target: ALPK1 (Homo sapiens, UniProt Q96QP1)
Assay: IL8 secretion in HEK293 cells (IL8 ELISA) as indicator of ALPK1 activation
Conditions: for IL8 secretion in HEK293 cells: 4 hours
Experimental: We pre-mixed H1b-ADP with phosphatase inhibitor sodium orthovanadate (Na3VO4) before incubation with FBS.
In these experiments, serial dilutions of the compounds were added to the tissue culture media of HEK293 cells with (FIG. 27B, FIG. 28B, FIG. 29B) or without (FIG. 26, FIG. 27A, FIG. 28A, FIG. 29A) 10% FBS, as indicated in the figures. After 4 hours, the cell supernatant was collected and analyzed for IL8 concentration using IL8 ELISA (BD) as an indicator of ALPK1 activation.

ALPK1, sequence (Q96QP1 whole entry): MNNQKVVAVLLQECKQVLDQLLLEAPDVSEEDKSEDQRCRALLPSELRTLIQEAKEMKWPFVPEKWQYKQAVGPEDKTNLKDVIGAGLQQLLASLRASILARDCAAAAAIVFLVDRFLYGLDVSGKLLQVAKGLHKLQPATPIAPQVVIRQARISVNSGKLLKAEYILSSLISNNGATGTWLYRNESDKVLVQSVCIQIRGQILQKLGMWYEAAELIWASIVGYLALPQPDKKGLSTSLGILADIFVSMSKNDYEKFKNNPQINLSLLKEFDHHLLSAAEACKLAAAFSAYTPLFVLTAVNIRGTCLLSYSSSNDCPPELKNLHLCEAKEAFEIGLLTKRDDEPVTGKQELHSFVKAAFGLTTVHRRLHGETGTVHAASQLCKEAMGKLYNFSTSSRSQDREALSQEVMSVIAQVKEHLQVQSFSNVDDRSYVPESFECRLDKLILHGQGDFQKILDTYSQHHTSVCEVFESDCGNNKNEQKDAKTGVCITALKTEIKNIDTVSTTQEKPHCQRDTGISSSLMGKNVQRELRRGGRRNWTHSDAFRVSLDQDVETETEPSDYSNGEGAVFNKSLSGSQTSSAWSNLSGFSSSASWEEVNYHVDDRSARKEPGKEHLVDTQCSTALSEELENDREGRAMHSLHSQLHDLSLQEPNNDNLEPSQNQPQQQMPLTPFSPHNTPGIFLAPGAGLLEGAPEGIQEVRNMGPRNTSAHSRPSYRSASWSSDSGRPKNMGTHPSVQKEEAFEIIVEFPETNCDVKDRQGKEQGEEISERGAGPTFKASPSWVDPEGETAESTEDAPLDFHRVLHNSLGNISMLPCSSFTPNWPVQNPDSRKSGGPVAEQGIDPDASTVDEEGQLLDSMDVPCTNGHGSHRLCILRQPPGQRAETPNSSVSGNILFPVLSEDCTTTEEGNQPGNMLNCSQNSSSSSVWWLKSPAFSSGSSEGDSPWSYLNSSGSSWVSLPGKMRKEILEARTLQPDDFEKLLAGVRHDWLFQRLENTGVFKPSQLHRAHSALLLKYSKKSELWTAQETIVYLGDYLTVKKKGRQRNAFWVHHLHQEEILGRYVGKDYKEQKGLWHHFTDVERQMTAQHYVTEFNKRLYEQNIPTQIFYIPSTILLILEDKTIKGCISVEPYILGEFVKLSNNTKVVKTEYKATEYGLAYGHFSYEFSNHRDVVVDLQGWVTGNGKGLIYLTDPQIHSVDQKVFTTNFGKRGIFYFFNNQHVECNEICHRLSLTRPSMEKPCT

Compound: CC(=O)OC[C@H](F)[C@H]1O[C@@H](OP(=O)(O)OP(=O)(O)OC[C@H]2O[C@@H](n3cnc4c(N)ncnc43)[C@H](O)[C@@H]2O)[C@@H](OC(C)=O)[C@@H](OC(C)=O)[C@@H]1OC(C)=O [Compound 3, (2S,3S,4S,5S,6S)-2-((S)-2-acetoxy-1-fluoroethyl)-6-(((((((2R,3S,4R,5R)-5-(6-amino-9H-purin-9-yl)-3,4-dihydroxytetrahydrofuran-2-yl)methoxy)(hydroxy)phosphoryl)oxy)(hydroxy)phosphoryl)oxy)tetrahydro-2H-pyran-3,4,5-triyl triacetate]
- IL8 secretion in HEK293 cells (with 10% FBS): activate IL8 secretion
- IL8 secretion in HEK293 cells (without FBS): activate IL8 secretion

Compound: CC(=O)OC[C@H]1O[C@@H](OP(=O)(O)OP(=O)(O)OC[C@H]2O[C@@H](n3cnc4c(N)ncnc43)[C@H](O)[C@@H]2O)[C@@H](OC(C)=O)[C@@H](OC(C)=O)[C@@H]1OC(C)=O [Compound 5, (2R,3R,4S,5S,6S)-2-(acetoxymethyl)-6-(((((((2R,3S,4R,5R)-5-(6-amino-9H-purin-9-yl)-3,4-dihydroxytetrahydrofuran-2-yl)methoxy)(hydroxy)phosphoryl)oxy)(hydroxy)phosphoryl)oxy)tetrahydro-2H-pyran-3,4,5-triyl triacetate]
- IL8 secretion in HEK293 cells (with 10% FBS): increased IL8 secretion
- IL8 secretion in HEK293 cells (without FBS): increased IL8 secretion

Compound: CO[C@@H]1[C@H](OC)[C@@H](COP(=O)(O)OP(=O)(O)O[C@@H]2O[C@H]([C@@H](COC(C)=O)OC(C)=O)[C@@H](OC(C)=O)[C@H](OC(C)=O)[C@@H]2OC(C)=O)O[C@H]1n1cnc2c(N)ncnc21 [Compound 13, (2S,3S,4S,5R,6R)-2-(((((((2R,3R,4R,5R)-5-(6-amino-9H-purin-9-yl)-3,4-dimethoxytetrahydrofuran-2-yl)methoxy)(hydroxy)phosphoryl)oxy)(hydroxy)phosphoryl)oxy)-6-((R)-1,2-diacetoxyethyl)tetrahydro-2H-pyran-3,4,5-triyl triacetate]
- IL8 secretion in HEK293 cells (with 10% FBS): increased IL8 secretion
- IL8 secretion in HEK293 cells (without FBS): increased IL8 secretion

Compound: COC1C(OC)[C@@H](COP(=O)(O)OP(=O)(O)O[C@@H]2OC([C@H](O)CO)[C@@H](O)C(O)C2O)O[C@H]1n1cnc2c(N)ncnc21 (stereo partly drawn) [Compound 14, Adenosine-2′3′-dimethoxy-5′-(D-glycero-β-D-mannoheptopyranosyl) diphosphate]
- IL8 secretion in HEK293 cells (with 10% FBS): increased IL8 secretion
- IL8 secretion in HEK293 cells (without FBS): increased IL8 secretion

Compound: CC(=O)OC[C@@H](OC(C)=O)[C@H]1O[C@@H](OP(=O)(O)OP(O)(=S)OC[C@H]2O[C@@H](n3cnc4c(N)ncnc43)[C@H](O)[C@@H]2O)[C@@H](OC(C)=O)[C@@H](OC(C)=O)[C@@H]1OC(C)=O (stereo partly drawn) [Compound 15, (2S,3S,4S,5R,6R)-2-(((((((2R,3S,4R,5R)-5-(6-amino-9H-purin-9-yl)-3,4-dihydroxytetrahydrofuran-2-yl)methoxy)(hydroxy)phosphorothioyl)oxy)(hydroxy)phosphoryl)oxy)-6-((R)-1,2-diacetoxyethyl)tetrahydro-2H-pyran-3,4,5-triyl triacetate]
- resistance to serum degradation (compare without FBS and with 10% FBS (FIG. 27A and FIG. 27B)): unexpected resistance to serum degradation
- IL8 secretion in HEK293 cells (with 10% FBS): activate IL8 secretion
- IL8 secretion in HEK293 cells (without FBS): activate IL8 secretion

Compound: Nc1ncnc2c1ncn2[C@@H]1O[C@H](COP(O)(=S)OP(=O)(O)O[C@@H]2OC([C@H](O)CO)[C@@H](O)C(O)C2O)C(O)C1O (some centres unmarked) [Compound 16]
- IL8 secretion in HEK293 cells (with 10% FBS): increased IL8 secretion
- IL8 secretion in HEK293 cells (without FBS): increased IL8 secretion

Compound: CC(=O)OC[C@@H](OC(C)=O)[C@H]1O[C@@H](OP(=O)(O)OP(=O)(O)OC[C@H]2O[C@@H](n3cnc4c(N)ncnc43)[C@H](O)[C@H]2F)[C@@H](OC(C)=O)[C@@H](OC(C)=O)[C@@H]1OC(C)=O [Compound 17, (2S,3S,4S,5R,6R)-2-(((((((2R,3R,4S,5R)-5-(6-amino-9H-purin-9-yl)-3-fluoro-4-hydroxytetrahydrofuran-2-yl)methoxy)(hydroxy)phosphoryl)oxy)(hydroxy)phosphoryl)oxy)-6-((R)-1,2-diacetoxyethyl)tetrahydro-2H-pyran-3,4,5-triyl triacetate]
- IL8 secretion in HEK293 cells (with 10% FBS): increased IL8 secretion
- IL8 secretion in HEK293 cells (without FBS): increased IL8 secretion

Compound: CC(=O)OC[C@@H](OC(C)=O)[C@H]1O[C@@H](OP(=O)(O)OP(=O)(O)OC[C@@]2(F)O[C@@H](n3cnc4c(N)ncnc43)[C@@H]3OC(C)(C)O[C@@H]32)[C@@H](OC(C)=O)[C@@H](OC(C)=O)[C@@H]1OC(C)=O [Compound 19, (2S,3S,4S,5R,6R)-2-(((((((3aS,4S,6R,6aR)-6-(6-amino-9H-purin-9-yl)-4-fluoro-2,2-dimethyltetrahydrofuro[3,4-d][1,3]dioxol-4-yl)methoxy)(hydroxy)phosphoryl)oxy)(hydroxy)phosphoryl)oxy)-6-((R)-1,2-diacetoxyethyl)tetrahydro-2H-pyran-3,4,5-triyl triacetate]
- IL8 secretion in HEK293 cells (with 10% FBS): activate IL8 secretion
- IL8 secretion in HEK293 cells (without FBS): activate IL8 secretion

Compound: CC(=O)OC[C@@H](OC(C)=O)[C@H]1O[C@@H](OP(=O)(O)OP(=O)(O)OC[C@@]2(F)O[C@@H](n3cnc4c(N)ncnc43)[C@H](O)[C@@H]2O)[C@@H](OC(C)=O)[C@@H](OC(C)=O)[C@@H]1OC(C)=O [Compound 20, (2S,3S,4S,5R,6R)-2-(((((((2S,3S,4R,5R)-5-(6-amino-9H-purin-9-yl)-2-fluoro-3,4-dihydroxytetrahydrofuran-2-yl)methoxy)(hydroxy)phosphoryl)oxy)(hydroxy)phosphoryl)oxy)-6-((R)-1,2-diacetoxyethyl)tetrahydro-2H-pyran-3,4,5-triyl triacetate]
- IL8 secretion in HEK293 cells (with 10% FBS): activate IL8 secretion
- IL8 secretion in HEK293 cells (without FBS): activate IL8 secretion

Compound: CC(=O)OC[C@H](OC(C)=O)[C@H]1O[C@@H](OP(=O)(O)OP(=O)(O)OC[C@H]2O[C@@H](n3cnc4c(N)ncnc43)[C@H](O)[C@@H]2O)[C@@H](OC(C)=O)[C@@H](OC(C)=O)[C@@H]1OC(C)=O [Compound 21, (2S,3S,4S,5R,6R)-2-(((((((2R,3S,4R,5R)-5-(6-amino-9H-purin-9-yl)-3,4-dihydroxytetrahydrofuran-2-yl)methoxy)(hydroxy)phosphoryl)oxy)(hydroxy)phosphoryl)oxy)-6-((S)-1,2-diacetoxyethyl)tetrahydro-2H-pyran-3,4,5-triyl triacetate]
- IL8 secretion in HEK293 cells (with 10% FBS): increased IL8 secretion
- IL8 secretion in HEK293 cells (without FBS): increased IL8 secretion

Compound: Nc1ncnc2c1ncn2[C@@H]1O[C@H](COP(=O)(O)OP(=O)(O)O[C@@H]2OC([C@@H](O)CO)[C@@H](O)C(O)C2O)C(O)C1O (stereo partly drawn) [Compound 22, Adenosine-5′-(L-glycero-β-D-mannoheptopyranosyl) diphosphate]
- IL8 secretion in HEK293 cells (with 10% FBS): increased IL8 secretion
- IL8 secretion in HEK293 cells (without FBS): increased IL8 secretion
